According to the NIST ThermoML archive (doi:10.1016/j.jct.2014.08.005):

Assays:
[1] = Liquid, Vibrating tube method
[2] = wn = mass fraction of the nth substance listed; conditions: 101 kPa, Liquid, Vibrating tube method

CC(O)COC(C)COC(C)CO (configuration not stated) [2-[2-(2-hydroxypropoxy)propoxy]-1-propanol]
[1], 101 kPa
Conditions	mass density [kg/m3]
293.15 K	1017.5
303.15 K	1009.5
313.15 K	1001.5
323.15 K	993.4
333.15 K	985.2
343.15 K	976.9

CC(O)COC(C)COC(C)CO (configuration not stated) [2-[2-(2-hydroxypropoxy)propoxy]-1-propanol] + O
mass density [kg/m3], [2]
Conditions	293.15 K	303.15 K	313.15 K	323.15 K	333.15 K	343.15 K
w1 = 0.2	1019.4	1015.2	1010.2	1004.5	998.4	991.6
w1 = 0.4	1037.1	1030.1	1022.9	1015.5	1007.7	999.6
w1 = 0.6	1041.1	1033.2	1025.2	1017.2	1008.7	1000.2
w1 = 0.8	1030.7	1023.1	1015.4	1007.6	999.5	990.9
w1 = 1	1017.5	1009.5	1001.5	993.4	985.2	976.9

OCCOCCOCCO [triethylene glycol]
[1], 101.33 kPa
Conditions	mass density [kg/m3]
293.15 K	1124.7
303.15 K	1117
313.15 K	1109.2
323.15 K	1101.5
333.15 K	1093.7
343.15 K	1085.9
